Measured values reported in article PMC2904801, “A Metazoan/Plant-like Capping Enzyme and Cap Modified Nucleotides in the Unicellular Eukaryote Trichomonas vaginalis” (PLoS Pathogens, 2010).

Target: T1, TvCE (Trichomonas vaginalis, UniProt A2DUZ5)
T1 construct: gene TVAG_187730; full-length (561 residues, 69 kDa without tag), N-terminal His tag from pET200D, E. coli BL21, ~71 kDa monomer
T1 sequence (A2DUZ5 1-561): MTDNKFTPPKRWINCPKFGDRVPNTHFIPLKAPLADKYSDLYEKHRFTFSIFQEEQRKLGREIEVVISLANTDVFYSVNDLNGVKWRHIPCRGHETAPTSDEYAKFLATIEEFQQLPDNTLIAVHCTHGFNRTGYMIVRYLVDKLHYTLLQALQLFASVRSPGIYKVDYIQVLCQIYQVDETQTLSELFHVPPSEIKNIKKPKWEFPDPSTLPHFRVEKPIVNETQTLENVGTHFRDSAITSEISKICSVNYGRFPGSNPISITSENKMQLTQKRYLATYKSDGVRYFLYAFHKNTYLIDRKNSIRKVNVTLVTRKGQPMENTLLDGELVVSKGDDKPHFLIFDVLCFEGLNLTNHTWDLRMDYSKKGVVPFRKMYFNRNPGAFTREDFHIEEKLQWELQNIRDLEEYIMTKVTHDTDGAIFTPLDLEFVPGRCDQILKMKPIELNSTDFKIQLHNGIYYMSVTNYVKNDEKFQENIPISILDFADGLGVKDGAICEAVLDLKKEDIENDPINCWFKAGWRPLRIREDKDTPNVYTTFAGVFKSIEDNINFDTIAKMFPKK
Experiment: SDS-PAGE autoradiography of covalent enzyme-GMP intermediate; cold NTP competition
Type: biochemical
Conditions: guanylyltransferase domain; labelled compound; covalent enzyme-(lysyl-N)-GMP; 50 mM Tris-acetate pH 7.0, 5 mM DTT, 2.5 mM MgCl2, 37 °C

With `Nc1nc2c(ncn2[C@@H]2O[C@H](COP(=O)(O)OP(=O)(O)OP(=O)(O)O)[C@@H](O)[C@H]2O)c(=O)[nH]1` [[α-^32P]GTP] the “SDS-PAGE autoradiography of covalent enzyme-GMP intermediate; cold NTP competiti” value was “displayed an absolute specificity for a GTP substrate”.
